Values quoted from earlier work as cited in patent publication US5258406A, “Sulfonimidamides” (priority 1992, dated 1993).

Settings: Johnson et al., J. Org. Chem. 44, 2055 (1979); cited from earlier work

## CCCCNC(=O)NS(=N)(=O)c1ccc(C)cc1 (stereo not shown) [compound 16, N-butyl-N'-(p-toluenesulfonimidoyl)urea]
  activity in an antidiabetic screen: inactive
